Among the data in US20240108654A1, “COMBINATION OF A T CELL THERAPY AND A DGK INHIBITOR” (Juno Therapeutics, Inc., priority 2021, published 2024) are IC50 and EC50 values, retold here.

Where two headings read alike, the source gives them in different places.

The target in one experiment is human DGKα (Homo sapiens (Human), UniProt P23743). As to the kind of experiment: DGKα liposome (LIPGLO) in vitro DGK inhibition assay. It counts as biochemical. Conditions: extruded liposome substrate; 150 μM ATP; 5 nM enzyme; read-out: DGKa LIPGLO IC50.
human DGKα, sequence (P23743 other isoform, or with tags, fused parts or gaps): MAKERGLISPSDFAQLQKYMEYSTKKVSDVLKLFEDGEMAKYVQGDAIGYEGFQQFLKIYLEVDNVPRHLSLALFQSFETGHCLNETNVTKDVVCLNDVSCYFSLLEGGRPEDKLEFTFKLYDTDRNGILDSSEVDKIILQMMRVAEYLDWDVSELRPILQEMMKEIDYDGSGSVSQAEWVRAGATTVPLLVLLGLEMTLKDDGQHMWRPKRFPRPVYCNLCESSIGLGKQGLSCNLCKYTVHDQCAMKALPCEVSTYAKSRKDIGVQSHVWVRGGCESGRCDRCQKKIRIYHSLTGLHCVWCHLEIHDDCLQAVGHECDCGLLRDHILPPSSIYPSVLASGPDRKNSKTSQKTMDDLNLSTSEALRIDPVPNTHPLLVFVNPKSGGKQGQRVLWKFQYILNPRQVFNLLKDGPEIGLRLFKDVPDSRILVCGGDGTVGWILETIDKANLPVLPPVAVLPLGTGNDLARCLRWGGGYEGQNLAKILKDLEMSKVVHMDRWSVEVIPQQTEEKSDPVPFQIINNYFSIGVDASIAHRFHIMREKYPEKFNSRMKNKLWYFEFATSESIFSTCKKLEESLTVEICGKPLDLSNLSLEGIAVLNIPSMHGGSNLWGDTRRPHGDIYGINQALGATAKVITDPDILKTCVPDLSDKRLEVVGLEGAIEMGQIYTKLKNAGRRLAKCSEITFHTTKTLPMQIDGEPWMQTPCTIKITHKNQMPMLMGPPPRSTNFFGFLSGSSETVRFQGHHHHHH
Another experiment addresses human DGKζ (Homo sapiens (Human), UniProt Q13574). As to the kind of experiment: DGKζ liposome (LIPGLO) in vitro DGK inhibition assay. It counts as biochemical. The note with it: extruded liposome substrate; 150 μM ATP; 5 nM enzyme; read-out: DGKz LIPGLO IC50. How it is done:
The DGKα and DGKζ reactions were performed using either extruded liposome (DGKα and DGKζ LIPGLO assays) or detergent/lipid micelle substrate (DGKα and DGKζ assays). The reactions were carried out in 50 mM MOPS pH 7.5, 100 mM NaCl, 10 mM MgCl2, 1 μM CaCl2), and 1 mM DTT (assay buffer). The reactions using a detergent/lipid micelle substrate also contained 50 mM octyl B-D-glucopyranoside. The lipid substrate concentrations were 11 mM PS and 1 mM DAG for the detergent/lipid micelle reactions. The lipid substrate concentrations were 2 mM PS, 0.25 mM DAG, and 2.75 mM PC for the extruded liposome reactions. The reactions were carried out in 150 μM ATP. The enzyme concentrations for the DGKα and DGKζ were 5 nM.
The compound inhibition studies were carried out as follows: 50 nL droplets of each test compound (top concentration 10 mM with 11 point, 3-fold dilution series for each compound) solubilized in DMSO were transferred to wells of a white 1536 well plate (Corning 3725). A 5 mL enzyme/substrate solution at 2× final reaction concentration was prepared by combining 2.5 mL 4× enzyme solution (20 nM DGKα or DGKζ (prepared as described below) in assay buffer) and 2.5 mL of either 4× liposome or 4× detergent/lipid micelle solution (compositions described below) and incubated at room temperature for 10 minutes. Next, 1 μL 2× enzyme/substrate solution was added to wells containing the test compound and reactions were initiated with the addition of 1 μL 300 uM ATP. The reactions were allowed to proceed for 1 hr, after which 2 μL Glo Reagent (Promega V9101) was added and incubated for 40 minutes. Next, 4 μL Kinase Detection Reagent was added and incubated for 30 minutes. Luminescence was recorded using an EnVision microplate reader. […] The compounds were evaluated at 11 concentrations to determine IC50.
The lipid composition was 5 mol % DAG (Avanti 8008110), 40 mol % PS (Avanti 840035P), and 55 mol % PC (Avanti 850457) at a total lipid concentration of 15.2 mg/mL for the 4× liposome solution. The PC, DAG, and PS were dissolved in chloroform, combined, and dried in vacuo to a thin film. The lipids were hydrated to 20 mM in 50 mM MOPS pH 7.5, 100 mM NaCl, 5 mM MgCl2, and were freeze-thawed five times. The lipid suspension was extruded through a 100 nm polycarbonate filter eleven times. Dynamic light scattering was carried out to confirm liposome size (50-60 nm radius). The liposome preparation was stored at 4° C. for as long as four weeks.
Human DGK-alpha-TVMV-His-pFBgate and human DGK-zeta-transcript variant-2-TVMV-His-pFBgate baculovirus samples were generated using the Bac-to-Bac baculovirus expression system (Invitrogen) according to the manufacturer's protocol. The DNA used for expression of DGK-alpha and DGK-zeta have SEQ ID NOs: 251 and 252, respectively. Baculovirus amplification was achieved using infected Sf9 cells at 1:1500 virus/cell ratios, and grown for 65 hours at 27° C. post-transfection.
The expression scale up for each protein was carried out in the Cellbag 50 L WAVE-Bioreactor System 20/50 from GE Healthcare Bioscience. 12 L of 2×10^6 cells/mL Sf9 cells (Expression System, Davis, CA) grown in ESF921 insect medium (Expression System) were infected with virus stock at 1:200 virus/cell ratios, and grown for 66-68 hours at 27° C. post-infection. The infected cell culture was harvested by centrifugation at 2000 rpm for 20 min 4° C. in a SORVALL® RC12BP centrifuge. The cell pellets were stored at −70° C. until purification. […]

Another experiment has as its system naïve human CD8 T cells. As to the kind of experiment: Human CD8 T cells IFN-γ assay. The note with it: anti-CD3 plus anti-CD28 as baseline, 3 μM reference compound as 100% activation, 20 h, read-out: HuCD8 INFG Normalized EC50. It counts as cell-based. Here is the method: Frozen naïve human CD8 T cells were thawed in AIM-V media, incubated for 2 h in 37° C., and counted. The 384-well tissue culture plate was coated overnight at 4° C. with 20 μL anti-human CD3 at 0.05 μg/mL in PBS, which was removed off the plate before 40,000 cells per 40 microliters CD8 T cells with 0.1 μg/mL soluble anti-human CD28 were added to each well. The compounds were transferred using an Echo liquid handler to the cell plate immediately after the cells were plated. After 20 h incubation at 37° C. incubator, 3 microliters per well supernatants transferred into anew 384-well white assay plate for cytokine measurement.
Interferon-γ (IFN-γ) was quantitated using the AlphLISA kit (Cat #AL217) as described by the manufacturer manual (Perkin Elmer). The counts from each well were converted to IFN-γ concentration (pg/mL).

For experiment [1], the system named is OT-1 antigen-specific CD8+ T cells with SIINFEKL-loaded MC38 tumor cells. As to the kind of experiment: Murine cytotoxic T lymphocyte (CTL) assay, IFN-γ readout. It is filed as cell-based, mouse. The note with it: IFN-γ in supernatant after 24 hours, AlphaLisa; read-out: msCTL INFg IC50. An excerpt:
An antigen-specific cytolytic T-cell (CTL) assay was developed to evaluate functionally the ability of DGKα and DGKζ inhibitors to enhance effector T cell mediated tumor cell killing activity. CD8+ T-cells isolated from the OT-1 transgenic mouse recognize antigen presenting cells, MC38, that present the ovalbumin derived peptide […]. Recognition of the cognate antigen initiates the cytolytic activity of the OT-1 antigen-specific CD8+ T cells.
Functional CTL cells were generated as follows: OT-1 splenocytes from 8-12 week old mice were isolated and expanded in the presence of the […] peptide at 1 μg/mL and mIL2 at 10 U/mL. After three days, fresh media with […] was added. On day 5 of the expansion, the CD8+ T cells were isolated and ready for use. Activated CTL cells may be stored frozen for 6 months. Separately, one million MC38 tumor cells were pulsed with 1 μg/mL of […]-OVA peptide for 3 hours at 37° C. The cells were washed (3×) with fresh media to remove excess peptide. Finally, CTL cells that were pretreated with DGK inhibitors for 1 hour in a 96-well U bottom plate were combined with the antigen loaded MC38 tumor cells at a 1:10 ratio. The cells were then spun at 700 rpm for 5 min and placed in an incubator overnight at 37° C. After 24 hours, the supernatant was collected for analysis of IFN-γ cytokine levels by AlphaLisa purchased from Perkin Elmer.
For orientation: Alpha assays give light when donor and acceptor beads are brought close together.

In the next experiment the test system is Human venous whole blood. Briefly: Human whole blood IFN-γ assay. It is filed as cell-based. The note with it: anti-CD3 and anti-CD28 1 μg/mL each, 3 μM reference compound as 100% activation, read-out: INFg Whole Blood Normalized Agonist EC50. How it is done:
Human venous whole blood (22.5 μL per well), obtained from healthy donors, was pre-treated with compounds for one hour at 37° C. in a humidified 95% air/5% CO2 incubator. The blood was stimulated with 2.5 μL anti-human CD3 and anti-CD28 mAb at a final concentration of 1 μg/mL each for 24 hours at 37° C. IFN-γ in the supernatants was measured using ALphLISA kit (Cat #AL217).

human DGKζ, sequence (Q13574 other isoform, or with tags, fused parts or gaps isoform Q13574-4): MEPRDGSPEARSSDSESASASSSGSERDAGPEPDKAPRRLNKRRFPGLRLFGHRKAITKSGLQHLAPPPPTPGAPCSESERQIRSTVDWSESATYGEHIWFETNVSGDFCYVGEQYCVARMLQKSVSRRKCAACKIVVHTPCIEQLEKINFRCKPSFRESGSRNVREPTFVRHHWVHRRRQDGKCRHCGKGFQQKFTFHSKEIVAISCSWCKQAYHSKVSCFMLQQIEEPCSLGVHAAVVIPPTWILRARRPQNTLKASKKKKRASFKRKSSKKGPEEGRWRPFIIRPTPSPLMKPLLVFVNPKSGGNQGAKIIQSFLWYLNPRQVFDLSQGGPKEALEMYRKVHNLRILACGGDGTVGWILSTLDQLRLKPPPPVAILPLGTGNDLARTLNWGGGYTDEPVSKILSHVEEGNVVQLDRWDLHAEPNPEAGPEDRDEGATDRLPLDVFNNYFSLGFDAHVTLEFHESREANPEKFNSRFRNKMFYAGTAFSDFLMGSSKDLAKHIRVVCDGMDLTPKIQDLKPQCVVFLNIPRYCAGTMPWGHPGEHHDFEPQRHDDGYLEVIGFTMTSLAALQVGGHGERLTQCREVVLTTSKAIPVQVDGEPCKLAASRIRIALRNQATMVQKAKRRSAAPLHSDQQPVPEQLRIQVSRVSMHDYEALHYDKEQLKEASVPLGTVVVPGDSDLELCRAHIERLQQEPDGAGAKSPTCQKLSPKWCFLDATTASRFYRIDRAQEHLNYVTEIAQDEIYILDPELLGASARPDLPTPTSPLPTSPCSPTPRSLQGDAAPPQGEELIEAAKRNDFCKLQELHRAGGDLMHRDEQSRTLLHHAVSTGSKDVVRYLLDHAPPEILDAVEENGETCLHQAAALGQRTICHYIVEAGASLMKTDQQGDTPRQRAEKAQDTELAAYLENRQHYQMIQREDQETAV
Description for human DGKα: The DGKα and DGKζ reactions were performed using either extruded liposome (DGKα and DGKζ LIPGLO assays) or detergent/lipid micelle substrate (DGKα and DGKζ assays). The reactions were carried out in 50 mM MOPS pH 7.5, 100 mM NaCl, 10 mM MgCl2, 1 μM CaCl2), and 1 mM DTT (assay buffer). The reactions using a detergent/lipid micelle substrate also contained 50 mM octyl B-D-glucopyranoside. The lipid substrate concentrations were 11 mM PS and 1 mM DAG for the detergent/lipid micelle reactions. […] The enzyme concentrations for the DGKα and DGKζ were 5 nM.

As usually defined, the IC50 is the concentration at which inhibition is half-maximal. On to `CCC(c1ccc(F)cc1F)N1C[C@H](C)N(c2cc(=O)n(C)c3ccc(C#N)nc23)C[C@H]1C` (mixture of isomers) [Compound 12, 8-((2S,5R)-4-(1-(2,4-difluorophenyl)propyl)-2,5-dimethylpiperazin-1-yl)-5-methyl-6-oxo-5,6-dihydro-1,5-naphthyridine-2-carbonitrile], for which the half-inhibitory concentration (IC50) at human DGKα came to 570 nM; on human DGKζ, 460 nM.

By EC50 is commonly meant the concentration that produces a half-maximal response. As to `C[C@@H]1CN(c2cc(=O)n(C)c3ccc(C#N)nc23)[C@@H](C)CN1C(c1ccccc1)c1ccc(F)cc1` (single isomer, unassigned) [Compound 7], the EC50 came to 47 nM with naïve human CD8 T cells and 570 nM in the experiment on Human venous whole blood (24 hours). Further, the IC50 in experiment [1] was 64 nM.

As for `CC[C@@H]1CN(c2nc(=O)n(C)c3ccc(C#N)nc23)[C@@H](C)CN1C(C)c1ccc(C(F)(F)F)cc1` (single isomer, unassigned) [Compound 19], the half-maximal effective concentration (EC50) in the experiment on Human venous whole blood (24 hours) is 520 nM.

For `CC[C@@H]1CN(c2nc(=O)n(C)c3ccc(C#N)nc23)[C@@H](C)CN1C(C)c1ccc(C(F)(F)F)cc1` (single isomer, unassigned) [Compound 20], the EC50 in the experiment with Human venous whole blood (24 hours) came out at 32 nM.

On to `CC[C@@H]1CN(c2nc(=O)n(C)c3ccc(C#N)nc23)[C@@H](C)CN1C(c1ccc(F)cc1)c1ccc(C(F)(F)F)cn1` (single isomer, unassigned) [Compound 22], for which the concentration giving a half-maximal response (EC50) in the experiment with Human venous whole blood (Homo sapiens, 24 h) stood at 20 nM.

Turning to `CC[C@@H]1CN(c2nc(=O)n(C)c3ccc(C#N)nc23)[C@@H](C)CN1C(c1ccc(Cl)cc1)c1ccccn1` (single isomer, unassigned) [Compound 23], in the experiment on Human venous whole blood (24 hours), the EC50 was determined as 10500 nM.

Turning to `CC[C@@H]1CN(c2nc(=O)n(C)c3ccc(C#N)nc23)[C@@H](C)CN1C(c1ccc(Cl)cc1)c1ccccn1` (single isomer, unassigned) [Compound 24], the EC50 in the experiment with Human venous whole blood (24 hours) amounted to 200 nM.

For `CCC1CN(C(c2ccc(F)cc2)c2nc(C3CC3)no2)C(CC)CN1c1nc(=O)n(C)c2ccc(C#N)nc12` (single isomer, unassigned) [Compound 25], the IC50 at human DGKα was found to be 67 nM; on human DGKζ it was 29 nM. Moreover, the concentration for a half-maximal effect (EC50) with Human venous whole blood (24 hours) stood at 15 nM.

Consider `CCC1CN(C(c2ccc(F)cc2)c2nc(C3CC3)no2)C(CC)CN1c1nc(=O)n(C)c2ccc(C#N)nc12` (single isomer, unassigned) [Compound 26], for which the results for the IC50 at human DGKα and at human DGKζ were 14 nM and 33 nM, respectively. Also, in the experiment with Human venous whole blood (24 hours), the EC50 is 90 nM.

For the compound `C[C@@H]1CN(c2cc(=O)n(C)c3ccc(C#N)nc23)[C@@H](C)CN1C(c1ccccc1)c1ccc(F)cc1` (stereo partly drawn) [Compound 5, 8-[(2S,5R)-4-[(4-fluorophenyl)(phenyl)methyl]-2,5-dimethylpiperazin-1-yl]-5-methyl-6-oxo-5,6-dihydro-1,5-naphthyridine-2-carbonitrile], the half-inhibitory concentration (IC50) on human DGKα was determined as 870 nM; at human DGKζ, 1600 nM.

Take `Cc1ccc(C(c2ccc(F)cc2)N2C[C@H](C)N(c3cc(=O)n(C)c4ccc(C#N)nc34)C[C@H]2C)cc1` (stereo partly drawn) [Compound 10, 8-[(2S,5R)-4-[(4-fluorophenyl)(4-methylphenyl)methyl]-2,5-dimethylpiperazin-1-yl]-5-methyl-6-oxo-5,6-dihydro-1,5-naphthyridine-2-carbonitrile]: the results for the concentration for half-maximal inhibition (IC50) on human DGKα and at human DGKζ were 670 nM and 320 nM, respectively. Moreover, the concentration for a half-maximal effect (EC50) with naïve human CD8 T cells (Homo sapiens, T-cell) worked out at 23 nM; in the experiment with Human venous whole blood (Homo sapiens, 24 h), 440 nM.

Take `CCC(c1ccc(C(F)(F)F)cc1)N1C[C@H](CC)N(c2nc(=O)n(C)c3ccc(C#N)nc23)C[C@H]1CC` (stereo partly drawn) [Compound 18, 4-((2S,5R)-2,5-Diethyl-4-(1-(4-(trifluoromethyl)phenyl)propyl)piperazin-1-yl)-1-methyl-2-oxo-1,2-dihydropyrido[3,2-d]pyrimidine-6-carbonitrile]: the EC50 with Human venous whole blood (24 hours) was found to be 3750 nM.

`CC[C@@H]1CN(c2nc(=O)n(C)c3ccc(C#N)nc23)[C@@H](C)CN1C(c1ccc(F)cc1)c1ccc(C(F)(F)F)cn1` (stereo partly drawn) [Compound 21, 4-((2S,5R)-5-Ethyl-4-((4-fluorophenyl)(5-(trifluoromethyl)pyridin-2-yl)methyl)-2-methylpiperazin-1-yl)-1-methyl-2-oxo-1,2-dihydropyrido[3,2-d]pyrimidine-6-carbonitrile]: the half-maximal effective concentration (EC50) in the experiment with Human venous whole blood (Homo sapiens, 24 h) was found to be 43 nM.
